Experimental data reported in US20070004660A1, “Synergistic Modulation of Flt3 Kinase Using Alkylquinolines and Alkylquinazolines” (priority 2005, published 2007).

Target: T1, wild-type FLT3 receptor (Homo sapiens, UniProt P36888)
T1 construct: host or cells: Baf3 (murine B cell lymphoma line), stably transfected
T1 sequence (P36888 27-993): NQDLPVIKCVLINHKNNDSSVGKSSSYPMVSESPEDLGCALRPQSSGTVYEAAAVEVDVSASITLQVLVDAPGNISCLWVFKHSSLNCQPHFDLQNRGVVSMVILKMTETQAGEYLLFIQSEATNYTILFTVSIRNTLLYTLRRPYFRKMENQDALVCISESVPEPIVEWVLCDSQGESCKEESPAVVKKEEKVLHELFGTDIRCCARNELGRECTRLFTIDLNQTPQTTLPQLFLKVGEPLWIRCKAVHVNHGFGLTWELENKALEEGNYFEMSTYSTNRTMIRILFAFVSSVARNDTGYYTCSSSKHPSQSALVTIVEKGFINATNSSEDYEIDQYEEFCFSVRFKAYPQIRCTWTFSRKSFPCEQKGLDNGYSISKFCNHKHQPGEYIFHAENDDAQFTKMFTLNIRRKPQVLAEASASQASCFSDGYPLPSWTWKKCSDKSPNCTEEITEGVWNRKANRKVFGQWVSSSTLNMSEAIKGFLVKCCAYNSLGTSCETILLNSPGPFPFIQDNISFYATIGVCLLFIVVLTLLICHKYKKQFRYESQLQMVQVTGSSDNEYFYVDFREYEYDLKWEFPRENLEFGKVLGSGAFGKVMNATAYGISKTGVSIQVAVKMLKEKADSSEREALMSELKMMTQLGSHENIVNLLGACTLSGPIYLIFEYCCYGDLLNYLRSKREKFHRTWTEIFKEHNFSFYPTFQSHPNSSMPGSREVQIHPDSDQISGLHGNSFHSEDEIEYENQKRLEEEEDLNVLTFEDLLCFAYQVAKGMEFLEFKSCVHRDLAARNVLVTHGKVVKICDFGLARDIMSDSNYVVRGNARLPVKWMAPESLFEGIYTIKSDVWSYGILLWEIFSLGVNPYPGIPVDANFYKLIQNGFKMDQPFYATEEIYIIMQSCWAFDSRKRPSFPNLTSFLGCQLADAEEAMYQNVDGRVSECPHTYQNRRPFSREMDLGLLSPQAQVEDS
Test: Cell-based FLT3 receptor ELISA (FLT ligand-induced phosphorylation in Baf3 FLT3 cells)
Conditions: 100 ng/mL Flt ligand, uncertainty ±20%
Outline: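 Receptor phosphotyrosine measured by sandwich ELISA (anti-FLT3 capture, HRP anti-pTyr, luminescence) in FLT3-transfected murine Baf3 cells given 1 h compound pretreatment and 10 min 100 ng/mL FLT ligand after overnight low-serum starvation; triplicates, IC50 from nonlinear regression.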

IC50 [nM]	Compound
17	CC(C)Oc1ccc(NC(=O)N2CCC(c3ncnc4cc(OCCN5CCOC5=O)ccc34)CC2)cc1 [Example 79, 4-{7-[2-(2-Oxo-oxazolidin-3-yl)-ethoxy]-quinazolin-4-yl}-piperidine-1-carboxylic acid (4-isopropoxy-phenyl)-amide]
28	O=C1CCCN1CCCOc1ccc2c(C3CCN(C(=O)Nc4ccc(N5CCOCC5)nc4)CC3)ncnc2c1 [Example 72, 4-{7-[3-(2-Oxo-pyrrolidin-1-yl)-propoxy]-quinazolin-4-yl}-piperidine-1-carboxylic acid (6-morpholin-4-yl-pyridin-3-yl)-amide]
